# In US20130209515A1, “ANTI-INFECTIVE AND IMMUNOMODULATORY COMPOUNDS” (priority 2005, published 2013):
# Tested on: mouse genes
# Test: Whole genome expression in blood of mice after 2AA (Affymetrix GeneChip)
# Type: in vivo
# Protocol: To identify how 2AA pre-exposure promotes host defense to better protect against P. aeruginosa infection, we carried out whole genome gene expression studies of mice for several experimental conditions using the mouse full-thickness skin thermal injury infection model, including naïve; BI alone; 2AA treatment alone; 2AA pretreatment plus BI. The mice were injected IP, as we were not yet aware of the improved benefit obtained with IV delivery. Whole blood was collected after 0, 6, 24, 96 and 192 hr post 2AA injection. Also, pretreated BI mice were exposed to 2AA at 1 and 4 days pre-BI, with blood samples collected 24 hr post-BI. The transcriptome profiles were then determined and compared, and genes with statistically significant differences in their expression levels between the samples were further analyzed by pair-wise comparison (see experimental design, section 2.2).
# In experiments to determine if T-aminoacetophenone acts as an immunomodulator, eight 6-week old CD-1 male mice were treated intraperitonialy with 500 μl of a 20 mM solution of T-aminoacetophenone in 0.9% NaCl (aq). A control group of mice was administered only 0.9% NaCl. Blood was withdrawn from the mice at time points of 6 hours, 24 hours, 96 hours, and 192 hours, and RNA was extracted from each blood sample.
# Mouse GeneChip™ arrays, manufactured by Affymetrix (Santa Clara, Calif.), were used to compare the profile of gene expression in the blood samples of mice. The biotin-labeled cRNA used to hybridize to the GeneChips was prepared from the RNA extracted from the blood samples according to the Affymetrix GeneChip Expression Analysis Technical Manual (Research Genetics, Huntsville, Ala.).
# The expression profiles from treated and untreated mice were compared and an additional constraint of a minimum expression ratio of 1 was applied to control false positives to 5%. The gene list was clustered and the genes showing upregulation at any of the time points considered were selected. […] Most of the genes listed in the table function in immune response or host-pathogen interaction. The table includes several cytokines and their receptors, genes involved in immune cell proliferation, and calcium-binding proteins that have a role in downstream signaling.
# [1] = 2AA pre-BI, blood 24 hr post-BI (FIG. 38)
smiles,measurement,setting,value
"CC(=O)c1ccccc1N [2AA, 2′-aminoacetophenone]",down-regulated genes in 2AA-treated BI samples,[1],23 genes
same,up-regulated genes in 2AA-treated BI samples,[1],do not identify any up-regulated
same,"Fold Change AF220015 Rpt-1; regulatory protein, T lymphocyte 1","6 h after IP 2AA, blood",2.3 fold
same,"Fold Change AF237910 Membrane-spanning 4-domains, subfamily A","6 h after IP 2AA, blood",2.8 fold
same,"Fold Change AI323359 Csfmr, colony stimulating factor IR, regulator of myeloid cell proliferation","6 h after IP 2AA, blood",2.3 fold
same,"Fold Change AI462015 Nuclear factor of kappa light chain gene enhancer in B-cells inhibitor, alpha","6 h after IP 2AA, blood",2.3 fold
same,Fold Change AI648846 Solute carrier family 6,"6 h after IP 2AA, blood",10.1 fold
same,Fold Change AV026617 FBJ osteosarcoma oncogene,"6 h after IP 2AA, blood",15.0 fold
same,Fold Change AV229143 Interferon activated gene (202A),"6 h after IP 2AA, blood",21.2 fold
same,Fold Change AV318494 Myeloid cell leukemia sequence 1,"6 h after IP 2AA, blood",1.8 fold
same,Fold Change BB193024 Interferon-induced transmembrane protein-2,"6 h after IP 2AA, blood",5.0 fold
same,Fold Change BB241535 Suppressor of cytokine signaling 3,"6 h after IP 2AA, blood",4.9 fold
same,"Fold Change BB769628 Colony stimulating factor 2 receptor, beta 1","6 h after IP 2AA, blood",14.9 fold
same,Fold Change BB784999 Triggering receptor expressed on myeloid cells 1,"6 h after IP 2AA, blood",11.6 fold
same,Fold Change BB831725 Suppressor of cytokine signaling 3,"6 h after IP 2AA, blood",20.8 fold
same,Fold Change BC003839 Myeloid cell leukemia sequence 1 (Mcl1),"6 h after IP 2AA, blood",1.5 fold
same,Fold Change BC010291 Interferon-inducible protein (Cd225),"6 h after IP 2AA, blood",1.3 fold
same,Fold Change BC011092 Chemokine (C-C) receptor 1,"6 h after IP 2AA, blood",1.2 fold
same,Fold Change BC011437 IL-1β,"6 h after IP 2AA, blood",3.5 fold
same,Fold Change BC012653 Chemokine (C-X3-C) receptor 1,"6 h after IP 2AA, blood",30.6 fold
same,"Fold Change BC021916 EMAPI, cytokine activity","6 h after IP 2AA, blood",1.7 fold
same,Fold Change BC022943 Lymphocyte cytosolic protein 1,"6 h after IP 2AA, blood",2.0 fold
same,Fold Change BE285634 Interleukin-1 receptor accessory protein,"6 h after IP 2AA, blood",1.0 fold
same,"Fold Change NM_008039 Receptor activity [formyl peptide receptor, related sequence 2] (Fpr-rs2)","6 h after IP 2AA, blood",13.6 fold
same,Fold Change NM_008677 p40phox; intracellular signaling cascade neutrophil cytosolic factor 4 (Ncf4),"6 h after IP 2AA, blood",1.1 fold
same,"Fold Change NM_008879 Pls2, L-fimbrin, calcium ion binding lymphocyte cytosolic proteing 1 (Lep 1)","6 h after IP 2AA, blood",20.4 fold
same,Fold Change NM_009883 Nuclear factor induced by IL-6 (NF-IL6),"6 h after IP 2AA, blood",1.0 fold
same,Fold Change NM_011087 Paired-Ig-like receptor A1 (Piral),"6 h after IP 2AA, blood",1.9 fold
same,Fold Change NM_011313 Cacy; calcium binding protein A6 (calcyclin)cyclin-dependent protein kinase,"6 h after IP 2AA, blood",5.7 fold
same,Fold Change NM_011315 Saa-3 lipid transported activity acute phase response,"6 h after IP 2AA, blood",4.7 fold
same,"Fold Change NM_011355 PU.1, transcription factor complex cell growth and/or maintenance","6 h after IP 2AA, blood",17.0 fold
same,Fold Change NM_011940 Interferon-activatable protein (Ifi202),"6 h after IP 2AA, blood",29.8 fold
same,"Fold Change NM_011999 DCIR; C-type (calcium dependent, carbohydrate recognition domain) lectin","6 h after IP 2AA, blood",22.8 fold
same,"Fold Change NM_030691 Integral to membrane immunoglobulin superfamily, member 6 (Igsf6)","6 h after IP 2AA, blood",14.9 fold
same,Fold Change NM_030694 Interferon-induced transmembrane protein-3,"6 h after IP 2AA, blood",4.7 fold
same,Fold Change U05264 Glycoprotein 49B (Gp49b),"6 h after IP 2AA, blood",4.7 fold
same,Fold Change U72644 Leukocyte specific transcript 1,"6 h after IP 2AA, blood",1.6 fold
same,Fold Change X14607 Lipocalin 2,"6 h after IP 2AA, blood",13.9 fold
same,"additional genes upregulated (higher cutoff, Table 4)",6 hours after 2′-aminoacetophenone,10 genes
same,"Fold Change AF220015 Rpt-1; regulatory protein, T lymphocyte 1","24 h after IP 2AA, blood",0.6 fold
same,"Fold Change AF237910 Membrane-spanning 4-domains, subfamily A","24 h after IP 2AA, blood",0.5 fold
same,"Fold Change AI323359 Csfmr, colony stimulating factor IR, regulator of myeloid cell proliferation","24 h after IP 2AA, blood",0.7 fold
same,"Fold Change AI462015 Nuclear factor of kappa light chain gene enhancer in B-cells inhibitor, alpha","24 h after IP 2AA, blood",0.4 fold
same,Fold Change AI648846 Solute carrier family 6,"24 h after IP 2AA, blood",8.0 fold
same,Fold Change AV026617 FBJ osteosarcoma oncogene,"24 h after IP 2AA, blood",23.8 fold
same,Fold Change AV229143 Interferon activated gene (202A),"24 h after IP 2AA, blood",10.9 fold
same,Fold Change AV318494 Myeloid cell leukemia sequence 1,"24 h after IP 2AA, blood",1.1 fold
same,Fold Change BB193024 Interferon-induced transmembrane protein-2,"24 h after IP 2AA, blood",1.0 fold
same,Fold Change BB241535 Suppressor of cytokine signaling 3,"24 h after IP 2AA, blood",1.1 fold
same,"Fold Change BB769628 Colony stimulating factor 2 receptor, beta 1","24 h after IP 2AA, blood",6.9 fold
same,Fold Change BB784999 Triggering receptor expressed on myeloid cells 1,"24 h after IP 2AA, blood",5.9 fold
same,Fold Change BB831725 Suppressor of cytokine signaling 3,"24 h after IP 2AA, blood",6.5 fold
same,Fold Change BC003839 Myeloid cell leukemia sequence 1 (Mcl1),"24 h after IP 2AA, blood",0.0 fold
same,Fold Change BC010291 Interferon-inducible protein (Cd225),"24 h after IP 2AA, blood",0.0 fold
same,Fold Change BC011092 Chemokine (C-C) receptor 1,"24 h after IP 2AA, blood",−0.9 fold
same,Fold Change BC011437 IL-1β,"24 h after IP 2AA, blood",0.6 fold
same,Fold Change BC012653 Chemokine (C-X3-C) receptor 1,"24 h after IP 2AA, blood",11.6 fold
same,"Fold Change BC021916 EMAPI, cytokine activity","24 h after IP 2AA, blood",0.3 fold
same,Fold Change BC022943 Lymphocyte cytosolic protein 1,"24 h after IP 2AA, blood",0.2 fold
same,Fold Change BE285634 Interleukin-1 receptor accessory protein,"24 h after IP 2AA, blood",0.2 fold
same,"Fold Change NM_008039 Receptor activity [formyl peptide receptor, related sequence 2] (Fpr-rs2)","24 h after IP 2AA, blood",0.6 fold
same,Fold Change NM_008677 p40phox; intracellular signaling cascade neutrophil cytosolic factor 4 (Ncf4),"24 h after IP 2AA, blood",0.2 fold
same,"Fold Change NM_008879 Pls2, L-fimbrin, calcium ion binding lymphocyte cytosolic proteing 1 (Lep 1)","24 h after IP 2AA, blood",8.4 fold
same,Fold Change NM_009883 Nuclear factor induced by IL-6 (NF-IL6),"24 h after IP 2AA, blood",0.3 fold
same,Fold Change NM_011087 Paired-Ig-like receptor A1 (Piral),"24 h after IP 2AA, blood",0.9 fold
same,Fold Change NM_011313 Cacy; calcium binding protein A6 (calcyclin)cyclin-dependent protein kinase,"24 h after IP 2AA, blood",2.3 fold
same,Fold Change NM_011315 Saa-3 lipid transported activity acute phase response,"24 h after IP 2AA, blood",5.6 fold
same,"Fold Change NM_011355 PU.1, transcription factor complex cell growth and/or maintenance","24 h after IP 2AA, blood",0.0 fold
same,Fold Change NM_011940 Interferon-activatable protein (Ifi202),"24 h after IP 2AA, blood",9.4 fold
same,"Fold Change NM_011999 DCIR; C-type (calcium dependent, carbohydrate recognition domain) lectin","24 h after IP 2AA, blood",8.0 fold
same,"Fold Change NM_030691 Integral to membrane immunoglobulin superfamily, member 6 (Igsf6)","24 h after IP 2AA, blood",3.5 fold
same,Fold Change NM_030694 Interferon-induced transmembrane protein-3,"24 h after IP 2AA, blood",1.1 fold
same,Fold Change U05264 Glycoprotein 49B (Gp49b),"24 h after IP 2AA, blood",1.0 fold
same,Fold Change U72644 Leukocyte specific transcript 1,"24 h after IP 2AA, blood",0.9 fold
